Results from ChEMBL document CHEMBL3132769, “Fragment growing to retain or alter the selectivity of anchored kinase hinge-binding fragments” (Medchemcomm, 2014).

How the values were obtained:
[1] = target: T1, Serine/threonine-protein kinase Nek2 (Homo sapiens) (UniProt P51955); assay: Inhibition of human full length NEK2 expressed in baculovirus assessed as substrate phosphorylation using fluorescence-labelled peptides as substrate at 8 uM after 90 mins by microfluidic peptide phosphorylation assay
T1 sequence (whole entry): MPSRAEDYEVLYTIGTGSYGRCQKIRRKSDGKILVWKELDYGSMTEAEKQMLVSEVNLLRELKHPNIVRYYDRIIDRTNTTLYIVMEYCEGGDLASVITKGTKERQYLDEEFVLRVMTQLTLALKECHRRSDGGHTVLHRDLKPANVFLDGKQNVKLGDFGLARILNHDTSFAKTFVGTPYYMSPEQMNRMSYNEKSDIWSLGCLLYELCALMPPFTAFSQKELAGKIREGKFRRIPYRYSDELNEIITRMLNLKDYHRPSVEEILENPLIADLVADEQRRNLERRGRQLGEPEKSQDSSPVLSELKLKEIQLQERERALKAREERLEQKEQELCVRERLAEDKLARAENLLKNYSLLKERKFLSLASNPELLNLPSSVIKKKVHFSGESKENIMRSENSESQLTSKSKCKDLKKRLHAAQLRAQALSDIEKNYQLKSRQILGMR

[2] = target: T2, Protein kinase C epsilon type (Homo sapiens) (UniProt Q02156); assay: Inhibition of human truncated PKC epsilon expressed in baculovirus assessed as substrate phosphorylation using fluorescence-labelled peptides as substrate at 0.06 uM after 90 mins by microfluidic peptide phosphorylation assay
T2 sequence (whole entry): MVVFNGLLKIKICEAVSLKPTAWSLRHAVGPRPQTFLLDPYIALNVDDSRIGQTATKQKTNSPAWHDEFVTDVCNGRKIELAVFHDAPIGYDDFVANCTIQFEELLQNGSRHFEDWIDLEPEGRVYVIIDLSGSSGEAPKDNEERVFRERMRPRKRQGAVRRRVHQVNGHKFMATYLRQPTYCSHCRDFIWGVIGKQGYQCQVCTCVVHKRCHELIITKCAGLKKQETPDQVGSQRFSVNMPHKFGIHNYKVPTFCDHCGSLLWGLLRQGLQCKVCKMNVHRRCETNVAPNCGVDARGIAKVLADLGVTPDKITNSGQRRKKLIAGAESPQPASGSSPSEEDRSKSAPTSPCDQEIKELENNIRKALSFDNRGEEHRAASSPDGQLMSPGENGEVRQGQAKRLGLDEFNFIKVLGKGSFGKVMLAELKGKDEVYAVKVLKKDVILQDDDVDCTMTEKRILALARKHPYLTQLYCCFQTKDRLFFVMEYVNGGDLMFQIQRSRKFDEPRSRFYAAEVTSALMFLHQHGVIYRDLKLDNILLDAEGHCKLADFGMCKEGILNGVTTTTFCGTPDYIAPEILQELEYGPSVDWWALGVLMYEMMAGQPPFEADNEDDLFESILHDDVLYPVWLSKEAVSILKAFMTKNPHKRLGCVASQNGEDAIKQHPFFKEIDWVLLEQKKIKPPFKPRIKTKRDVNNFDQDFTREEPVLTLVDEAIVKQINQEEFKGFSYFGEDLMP

[3] = target: MAP/microtubule affinity-regulating kinase 3 (Homo sapiens) (UniProt P27448); assay: Inhibition of human full length c-TAK1 expressed in Escherichia coli cell assessed as substrate phosphorylation using fluorescence-labelled peptides as substrate at 0.06 uM after 90 mins by microfluidic peptide phosphorylation assay
[4] = target: Protein kinase C beta type (Homo sapiens) (UniProt P05771); assay: Inhibition of human full length PKC beta2 expressed in baculovirus assessed as substrate phosphorylation using fluorescence-labelled peptides as substrate at 0.2 uM after 90 mins by microfluidic peptide phosphorylation assay
[5] = target: Ribosomal protein S6 kinase alpha-1 (Homo sapiens) (UniProt Q15418); assay: Inhibition of human full length RSK1 expressed in baculovirus assessed as substrate phosphorylation using fluorescence-labelled peptides as substrate at 2 uM after 90 mins by microfluidic peptide phosphorylation assay
[6] = target: Insulin receptor (Homo sapiens) (UniProt P06213); assay: Inhibition of human INSR catalytic domain expressed in baculovirus assessed as substrate phosphorylation using fluorescence-labelled peptides as substrate at 2 uM after 90 mins by microfluidic peptide phosphorylation assay
[7] = target: Epidermal growth factor receptor (Homo sapiens) (UniProt P00533); assay: Inhibition of human EGFR catalytic domain expressed in baculovirus assessed as substrate phosphorylation using fluorescence-labelled peptides as substrate at 2 uM after 90 mins by microfluidic peptide phosphorylation assay
[8] = target: Vascular endothelial growth factor receptor 2 (Homo sapiens) (UniProt P35968); assay: Inhibition of human KDR cytoplasmic domain expressed in baculovirus assessed as substrate phosphorylation using fluorescence-labelled peptides as substrate at 0.1 uM after 90 mins by microfluidic peptide phosphorylation assay
[9] = target: T3, MAP kinase-activated protein kinase 5 (Homo sapiens) (UniProt Q8IW41); assay: Inhibition of human full length PRAK expressed in baculovirus assessed as substrate phosphorylation using fluorescence-labelled peptides as substrate at 1000 uM after 90 mins by microfluidic peptide phosphorylation assay
T3 sequence (whole entry): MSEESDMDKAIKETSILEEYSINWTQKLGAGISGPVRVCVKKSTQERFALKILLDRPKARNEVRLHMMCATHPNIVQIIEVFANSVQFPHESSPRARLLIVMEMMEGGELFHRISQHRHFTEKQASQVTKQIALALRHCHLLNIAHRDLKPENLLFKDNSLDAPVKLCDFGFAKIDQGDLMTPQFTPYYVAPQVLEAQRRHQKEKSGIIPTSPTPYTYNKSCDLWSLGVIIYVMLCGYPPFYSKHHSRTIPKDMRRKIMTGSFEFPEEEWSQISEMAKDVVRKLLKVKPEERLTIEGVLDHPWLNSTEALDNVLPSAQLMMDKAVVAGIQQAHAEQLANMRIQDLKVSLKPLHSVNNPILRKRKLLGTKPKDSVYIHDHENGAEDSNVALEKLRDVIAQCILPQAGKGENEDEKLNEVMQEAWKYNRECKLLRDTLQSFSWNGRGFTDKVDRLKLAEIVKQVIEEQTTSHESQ

[10] = target: T4, Testis-specific serine/threonine-protein kinase 1 (Homo sapiens) (UniProt Q9BXA7); assay: Inhibition of human full length TSSK1 expressed in baculovirus assessed as substrate phosphorylation using fluorescence-labelled peptides as substrate at 70 uM after 90 mins by microfluidic peptide phosphorylation assay
T4 sequence (whole entry): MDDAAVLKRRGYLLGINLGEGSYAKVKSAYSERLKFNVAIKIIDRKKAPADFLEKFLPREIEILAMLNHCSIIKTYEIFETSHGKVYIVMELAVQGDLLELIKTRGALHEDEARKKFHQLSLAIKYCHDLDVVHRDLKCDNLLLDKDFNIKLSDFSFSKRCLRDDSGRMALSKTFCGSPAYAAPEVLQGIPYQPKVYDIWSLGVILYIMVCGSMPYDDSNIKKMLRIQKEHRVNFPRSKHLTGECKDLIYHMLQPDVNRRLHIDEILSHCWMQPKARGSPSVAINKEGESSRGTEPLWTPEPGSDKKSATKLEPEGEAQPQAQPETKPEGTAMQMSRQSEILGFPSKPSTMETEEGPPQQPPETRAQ

Sequence of Vascular endothelial growth factor receptor 2 (Homo sapiens) (P35968 whole entry, the tested form may be a part): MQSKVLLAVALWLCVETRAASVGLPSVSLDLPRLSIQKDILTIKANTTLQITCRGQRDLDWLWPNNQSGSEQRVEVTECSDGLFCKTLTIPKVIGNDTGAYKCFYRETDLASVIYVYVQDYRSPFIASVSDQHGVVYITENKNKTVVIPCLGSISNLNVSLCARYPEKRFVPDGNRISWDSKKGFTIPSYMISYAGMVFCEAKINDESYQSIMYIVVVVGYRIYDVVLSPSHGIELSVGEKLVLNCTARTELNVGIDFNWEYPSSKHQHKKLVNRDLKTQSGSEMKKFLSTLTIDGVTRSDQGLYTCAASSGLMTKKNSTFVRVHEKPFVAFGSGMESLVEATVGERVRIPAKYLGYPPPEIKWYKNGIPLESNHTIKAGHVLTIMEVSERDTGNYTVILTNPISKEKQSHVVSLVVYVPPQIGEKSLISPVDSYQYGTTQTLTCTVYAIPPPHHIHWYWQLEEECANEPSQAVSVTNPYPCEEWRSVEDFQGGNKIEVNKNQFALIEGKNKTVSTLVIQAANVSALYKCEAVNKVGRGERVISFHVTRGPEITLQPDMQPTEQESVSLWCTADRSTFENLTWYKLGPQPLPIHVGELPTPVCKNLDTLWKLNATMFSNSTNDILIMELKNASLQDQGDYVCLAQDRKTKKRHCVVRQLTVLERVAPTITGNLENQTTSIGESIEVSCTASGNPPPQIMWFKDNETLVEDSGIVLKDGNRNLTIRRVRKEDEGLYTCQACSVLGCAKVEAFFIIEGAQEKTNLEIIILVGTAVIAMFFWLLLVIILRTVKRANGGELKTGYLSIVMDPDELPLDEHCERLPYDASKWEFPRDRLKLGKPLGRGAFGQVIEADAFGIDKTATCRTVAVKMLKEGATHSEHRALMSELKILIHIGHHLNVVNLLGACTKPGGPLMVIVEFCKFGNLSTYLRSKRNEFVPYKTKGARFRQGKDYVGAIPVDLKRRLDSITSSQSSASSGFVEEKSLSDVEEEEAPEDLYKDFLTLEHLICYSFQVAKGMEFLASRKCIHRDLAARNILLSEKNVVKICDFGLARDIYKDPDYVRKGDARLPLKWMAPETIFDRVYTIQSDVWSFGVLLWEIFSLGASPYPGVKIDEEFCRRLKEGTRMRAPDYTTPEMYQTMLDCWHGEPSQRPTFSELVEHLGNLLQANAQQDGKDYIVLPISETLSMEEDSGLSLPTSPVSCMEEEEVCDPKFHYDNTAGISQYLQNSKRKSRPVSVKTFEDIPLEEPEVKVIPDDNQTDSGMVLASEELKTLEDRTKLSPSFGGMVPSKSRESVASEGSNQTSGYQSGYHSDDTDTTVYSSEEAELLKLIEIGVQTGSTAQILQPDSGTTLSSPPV
Sequence of Epidermal growth factor receptor (Homo sapiens) (P00533 whole entry, the tested form may be a part): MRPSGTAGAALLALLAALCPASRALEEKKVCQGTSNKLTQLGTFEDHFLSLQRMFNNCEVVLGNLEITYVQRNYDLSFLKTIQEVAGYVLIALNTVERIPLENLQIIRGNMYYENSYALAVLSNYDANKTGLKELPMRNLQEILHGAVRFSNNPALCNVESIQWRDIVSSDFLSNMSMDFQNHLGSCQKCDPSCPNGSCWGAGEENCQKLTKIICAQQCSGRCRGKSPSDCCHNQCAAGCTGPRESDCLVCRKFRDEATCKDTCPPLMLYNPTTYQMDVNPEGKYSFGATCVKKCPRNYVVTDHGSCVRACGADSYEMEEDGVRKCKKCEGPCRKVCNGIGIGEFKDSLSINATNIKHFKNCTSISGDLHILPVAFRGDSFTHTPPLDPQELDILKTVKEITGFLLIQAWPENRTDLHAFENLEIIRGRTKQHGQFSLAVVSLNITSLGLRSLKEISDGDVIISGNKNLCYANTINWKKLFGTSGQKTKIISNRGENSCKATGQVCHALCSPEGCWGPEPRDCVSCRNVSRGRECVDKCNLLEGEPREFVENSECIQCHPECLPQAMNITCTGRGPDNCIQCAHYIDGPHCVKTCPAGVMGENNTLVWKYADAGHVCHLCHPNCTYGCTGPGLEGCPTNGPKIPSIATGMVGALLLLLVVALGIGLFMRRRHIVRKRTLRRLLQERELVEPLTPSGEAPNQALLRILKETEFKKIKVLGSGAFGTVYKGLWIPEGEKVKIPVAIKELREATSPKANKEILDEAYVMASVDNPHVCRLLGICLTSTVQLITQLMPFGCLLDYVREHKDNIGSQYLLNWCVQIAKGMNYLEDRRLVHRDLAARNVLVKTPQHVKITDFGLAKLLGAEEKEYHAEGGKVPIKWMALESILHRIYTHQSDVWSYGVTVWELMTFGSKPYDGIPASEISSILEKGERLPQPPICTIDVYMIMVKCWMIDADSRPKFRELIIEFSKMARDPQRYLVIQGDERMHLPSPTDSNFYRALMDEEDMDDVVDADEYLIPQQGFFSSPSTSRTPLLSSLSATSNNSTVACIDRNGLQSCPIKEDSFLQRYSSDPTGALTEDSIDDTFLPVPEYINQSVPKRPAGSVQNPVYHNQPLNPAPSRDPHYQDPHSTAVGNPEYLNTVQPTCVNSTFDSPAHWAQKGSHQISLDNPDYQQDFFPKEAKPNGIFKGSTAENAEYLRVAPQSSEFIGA
Sequence of MAP/microtubule affinity-regulating kinase 3 (Homo sapiens) (P27448 whole entry, looked up): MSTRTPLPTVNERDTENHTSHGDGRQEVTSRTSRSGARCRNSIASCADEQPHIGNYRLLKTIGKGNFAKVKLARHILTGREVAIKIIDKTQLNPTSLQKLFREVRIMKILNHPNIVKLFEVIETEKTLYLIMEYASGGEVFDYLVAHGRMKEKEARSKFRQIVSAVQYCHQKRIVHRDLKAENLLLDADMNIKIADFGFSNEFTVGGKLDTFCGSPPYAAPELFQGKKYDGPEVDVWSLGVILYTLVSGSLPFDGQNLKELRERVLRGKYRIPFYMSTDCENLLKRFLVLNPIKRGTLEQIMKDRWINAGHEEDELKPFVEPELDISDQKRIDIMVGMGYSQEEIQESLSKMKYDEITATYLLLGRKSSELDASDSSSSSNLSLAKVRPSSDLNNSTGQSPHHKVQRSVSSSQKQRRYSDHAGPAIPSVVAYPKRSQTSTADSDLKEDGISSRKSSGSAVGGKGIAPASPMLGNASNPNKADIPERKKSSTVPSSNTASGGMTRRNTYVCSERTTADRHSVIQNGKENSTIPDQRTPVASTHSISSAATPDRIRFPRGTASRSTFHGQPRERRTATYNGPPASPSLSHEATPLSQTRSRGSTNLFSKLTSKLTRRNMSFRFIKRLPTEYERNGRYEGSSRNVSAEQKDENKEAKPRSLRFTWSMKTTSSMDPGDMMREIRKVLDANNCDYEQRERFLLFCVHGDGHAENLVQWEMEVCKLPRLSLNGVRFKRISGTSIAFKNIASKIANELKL
Sequence of Protein kinase C beta type (Homo sapiens) (P05771 2-671 limits assumed): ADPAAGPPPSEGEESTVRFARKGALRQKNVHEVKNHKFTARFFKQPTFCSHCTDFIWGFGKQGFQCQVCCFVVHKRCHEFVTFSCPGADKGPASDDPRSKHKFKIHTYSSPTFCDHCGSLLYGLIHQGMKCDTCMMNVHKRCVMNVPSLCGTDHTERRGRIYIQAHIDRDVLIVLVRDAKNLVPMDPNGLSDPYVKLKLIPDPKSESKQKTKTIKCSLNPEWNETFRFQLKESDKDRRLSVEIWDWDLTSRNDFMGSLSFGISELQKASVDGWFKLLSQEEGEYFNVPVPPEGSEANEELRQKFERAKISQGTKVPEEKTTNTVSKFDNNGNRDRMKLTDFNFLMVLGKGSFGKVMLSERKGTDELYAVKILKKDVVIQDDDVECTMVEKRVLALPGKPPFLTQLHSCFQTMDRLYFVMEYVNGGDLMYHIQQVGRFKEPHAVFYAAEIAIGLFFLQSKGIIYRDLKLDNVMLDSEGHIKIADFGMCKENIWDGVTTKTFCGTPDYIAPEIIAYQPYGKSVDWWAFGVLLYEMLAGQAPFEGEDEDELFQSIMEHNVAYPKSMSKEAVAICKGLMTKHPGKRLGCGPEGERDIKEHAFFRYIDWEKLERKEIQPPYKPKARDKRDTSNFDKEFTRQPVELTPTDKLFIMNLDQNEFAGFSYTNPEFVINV
Sequence of Ribosomal protein S6 kinase alpha-1 (Homo sapiens) (Q15418 whole entry, the tested form may be a part): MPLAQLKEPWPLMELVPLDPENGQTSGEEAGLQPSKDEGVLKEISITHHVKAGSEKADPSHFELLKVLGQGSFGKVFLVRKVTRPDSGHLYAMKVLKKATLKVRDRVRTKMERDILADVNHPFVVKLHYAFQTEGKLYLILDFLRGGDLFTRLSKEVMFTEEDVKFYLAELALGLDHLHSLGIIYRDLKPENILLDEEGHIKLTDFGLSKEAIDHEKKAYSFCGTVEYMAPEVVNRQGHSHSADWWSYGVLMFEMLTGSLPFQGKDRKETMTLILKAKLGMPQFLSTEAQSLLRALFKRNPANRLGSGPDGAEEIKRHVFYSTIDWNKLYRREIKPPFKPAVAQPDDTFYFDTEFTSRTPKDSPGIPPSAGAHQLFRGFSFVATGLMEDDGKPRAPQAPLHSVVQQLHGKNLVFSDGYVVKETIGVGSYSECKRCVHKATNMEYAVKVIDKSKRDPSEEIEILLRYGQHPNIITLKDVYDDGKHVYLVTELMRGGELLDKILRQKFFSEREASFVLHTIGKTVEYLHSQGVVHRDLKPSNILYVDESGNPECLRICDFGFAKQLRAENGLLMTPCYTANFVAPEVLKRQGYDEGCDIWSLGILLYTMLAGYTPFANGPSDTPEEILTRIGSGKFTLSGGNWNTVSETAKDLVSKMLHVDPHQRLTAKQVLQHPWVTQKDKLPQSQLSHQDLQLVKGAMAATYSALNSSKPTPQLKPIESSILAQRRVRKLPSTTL

Structure (SMILES): NCC1CCN(c2ncnc3[nH]ccc23)CC1
- inhibition [1]: 0%

Structure (SMILES): NC1(Cc2ccc(Cl)cc2)CCN(c2ncnc3[nH]ccc23)CC1
- inhibition [2]: 1.5%
- inhibition [3]: 0%

Structure (SMILES): Clc1ccc(C2(c3ccc(-c4ncnc5[nH]cnc45)cc3)CCNCC2)cc1
- inhibition [4]: 38.5%

Structure (SMILES): NC1CCN(c2ncnc3[nH]ccc23)CC1
- inhibition [5]: 7.5%
- inhibition [6]: 7.5%
- inhibition [7]: 3.5%

Structure (SMILES): C[C@H](CN(C)C)Oc1nc(Nc2cc3cccc(Cl)c3cn2)cnc1C#N
- inhibition [8]: 14%

Structure (SMILES): c1cnc2[nH]ccc2c1
- inhibition [9]: 77%

Structure (SMILES): CNCc1ccc(-c2ncnc3[nH]cnc23)cc1
- inhibition [10]: 62%
